Consider six compounds from PMC8229952, “Coumarin Derivatives Act as Novel Inhibitors of Human Dipeptidyl Peptidase III: Combined In Vitro and In Silico Study” (Pharmaceuticals, 2021).

Assay [1] concerns the target T1, human dipeptidyl peptidase III (hDPP III) (Homo sapiens, UniProt Q9NY33).
T1 construct: gene DPP3; C-terminally truncated human DPP III (His-tag removed by TEV)
T1 sequence (Q9NY33 1-726 limits assumed): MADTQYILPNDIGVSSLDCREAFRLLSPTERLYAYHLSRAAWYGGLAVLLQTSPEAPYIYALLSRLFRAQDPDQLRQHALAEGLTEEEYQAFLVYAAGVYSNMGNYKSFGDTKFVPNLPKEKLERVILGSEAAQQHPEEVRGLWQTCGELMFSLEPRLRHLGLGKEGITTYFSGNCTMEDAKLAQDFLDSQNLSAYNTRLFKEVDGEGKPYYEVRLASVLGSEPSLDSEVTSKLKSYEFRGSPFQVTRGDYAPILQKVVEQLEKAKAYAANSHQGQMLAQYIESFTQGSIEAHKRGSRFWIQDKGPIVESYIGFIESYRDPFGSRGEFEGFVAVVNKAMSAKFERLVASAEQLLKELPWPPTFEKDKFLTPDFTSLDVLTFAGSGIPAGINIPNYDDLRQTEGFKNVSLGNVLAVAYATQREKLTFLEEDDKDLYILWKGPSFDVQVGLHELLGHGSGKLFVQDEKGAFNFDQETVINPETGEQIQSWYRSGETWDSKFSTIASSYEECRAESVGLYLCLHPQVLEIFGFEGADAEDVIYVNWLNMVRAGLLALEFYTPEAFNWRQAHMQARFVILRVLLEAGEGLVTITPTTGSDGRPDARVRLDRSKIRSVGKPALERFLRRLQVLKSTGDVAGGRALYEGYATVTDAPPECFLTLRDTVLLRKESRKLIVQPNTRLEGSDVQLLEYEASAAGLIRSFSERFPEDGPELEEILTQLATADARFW
Description: spectrophotometric enzyme assay, % inhibition at […], purified hDPP III. In kind it is biochemical. Conditions: for inhibition at 10 µM: read-out: DPP III Inh. (%).

Assay [2] concerns the target T1, human dipeptidyl peptidase III (hDPP III). Description: spectrophotometric enzyme assay with Arg2-2NA substrate, purified hDPP III. In kind it is biochemical. Particulars: read-out: DPP III Inh. (%).

The structures appear in SMILES notation.

Regarding `O=C(c1ccccc1)c1cc2cc(O)ccc2oc1=O` [compound 10, 3-benzoyl; 6-hydroxy (substituted 2H-chromen-2-one)], the inhibition at 10 µM in assay [1] was determined as 67.5%.

Consider `O=C(c1ccccc1)c1cc2ccc(O)cc2oc1=O` [compound 12, 3-benzoyl-7-hydroxy-2H-chromen-2-one], for which, in assay [2], the IC50 worked out at 1100 ± 50 nM.

Turning to `N#Cc1cc2cc(O)ccc2oc1=O` [compound 18, 3-cyano; 6-hydroxy (substituted 2-oxo-2H-chromene-3-carbonitrile)], the inhibition at 10 µM in assay [1] turned out to be 44.6%.

In the case of `N#Cc1cc2cccc(O)c2oc1=O` [compound 21, 3-cyano; 8-hydroxy (substituted 2-oxo-2H-chromene-3-carbonitrile)], in assay [1], the inhibition at 10 µM worked out at 62.6%.

Consider `CCOC(=O)c1cc2cc(O)ccc2oc1=O` [compound 27, 3-ethoxycarbonyl; 6-hydroxy (substituted 2H-chromen-2-one)], for which, in assay [1] (10 µM), the “DPP III Inh. (%)” value was 66.0.

For `COC(=O)c1cc2ccc(O)cc2oc1=O` [compound 36, methyl 7-hydroxy-2-oxo-2H-chromene-3-carboxylate], in assay [2], the IC50 worked out at 2140 ± 60 nM.
